Source: US11730743B2, “Protection of cells from degeneration and treatment of geographic atrophy” (University of Kentucky Research Foundation, priority 2012, dated 2023)

Assays:
wild-type mice = experiment: Alu RNA- or pAlu-induced RPE degeneration after subretinal injection (fundus photographs, ZO-1 flat mounts); type: in vivo; conditions: subretinal Alu RNA, test agent intravitreous
Protocol: Subretinal injection and imaging. Subretinal injections (1 μL) in mice were performed using a Pico-Injector (PLI-100, Harvard Apparatus). In vivo transfection of plasmids was achieved using 10% Neuroporter (Genlantis). Fundus imaging was performed on a TRC-50 IX camera (Topcon) linked to a digital imaging system (Sony). Immunolabeling of RPE flat mounts was performed using antibodies against human zonula occludens-1 (Invitrogen).
Fundus photography. Retinal photographs of dilated mouse eyes were taken with a TRC-50 IX camera (Topcon) linked to a digital imaging system (Sony).
Immunolabeling. Human eyes fixed in 2-4% paraformaldehyde were prepared as eyecups, cryoprotected in 30% sucrose, embedded in optimal cutting temperature compound (Tissue-Tek OCT; Sakura Finetek), and cryosectioned into 10 μm sections. Depigmentation was achieved using 0.25% potassium permanganate and 0.1% oxalic acid. Immunohistochemical staining was performed with the rabbit antibody against NLRP3 (1:100, Sigma Aldrich) or rabbit antibody against Caspase-1 (prediluted, AbCam). Isotype IgG was substituted for the primary antibody to assess the specificity of the staining. Bound antibody was detected with biotin-conjugated secondary antibodies, followed by incubation with ABC reagent and visualized by Vector Blue (Vector Laboratories). Levamisole (Vector Laboratories) was used to block endogenous alkaline phosphatase activity. Slides were washed in PBS, counterstained with neutral red (Fisher Scientific), rinsed with deionized water, air dried, and then mounted in Vectamount (Vector Laboratories). Fluorescent labeling of human tissue was performed with the rabbit antibody against PYCARD (1:50, Clone N-15, Santa Cruz Biotechnology). Immunolabeling was visualized by fluorescently conjugated anti-rabbit secondary antibody (Invitrogen). Tissue autofluorescence was quenched by incubating the sections in 0.3% Sudan black (Fisher Scientific). Sections were mounted in Vectashield with DAPI (Vector Laboratories). Mouse RPE/choroid flat mounts were fixed with 4% paraformaldehyde or 100% methanol, stained with rabbit antibodies against human zonula occludens-1 (1:100, Invitrogen) and visualized with Alexa594 (Invitrogen). All images were obtained using the Leica SP-5 or Zeiss Axio Observer Z1 microscopes.
Subretinal injection. Subretinal injections (1 μL) in mice were performed using a Pico-Injector (PLI-100, Harvard Apparatus). In vivo transfection of plasmids coding for two different Alu sequences (pAlu) or empty control vector (pNull) (Bennett et al., 2008; Kaneko et al., 2011; Shaikh et al., 1997) was achieved using 10% Neuroporter (Genlantis). AAV1-BEST1-Cre (Alexander and Hauswirth, 2008) or AAV1-BEST1-GFP were injected at […] pfu/mL and in vitro transcribed Alu RNA was injected at 0.3 mg/mL.
Drug treatments. siRNAs formulated in siRNA buffer (20 mM KCL, 0.2 mM MgCl2 in HEPES buffer at pH 7.5; Dharmacon) or phosphate buffered saline (PBS; Sigma-Aldrich); the TLR4 antagonist Ultra Pure Rhodobacter sphaeroides LPS (LPS-RS, InvivoGen), a peptide inhibitor of MyD88 homodimerization IMG-2005 (IMGENEX), control inhibitor (IMGENEX), recombinant IL-18 (Medical & Biological Laboratories), neutralizing rat antibodies against mouse IL-1β (IMGENEX), neutralizing rat antibodies against mouse IL-18 (Medical & Biological Laboratories), isotype control IgGs (R&D Systems or eBioscience as appropriate), Caspase-1 inhibitor Z-WEHD-FMK (R&D Systems), Caspase-3 inhibitor Z-DEVD-FMK (R&D Systems), Caspase control inhibitor Z-FA-FMK (R&D Systems), (2R,4R)-APDC (Enzo Life Sciences), Glipizide (Sigma-Aldrich), Glyburide (Sigma-Aldrich), and P2X7 receptor antagonist A438079 (Tocris Bioscience) were dissolved in phosphate buffered saline (PBS; Sigma-Aldrich) or dimethyl sulfoxide (DMSO; Sigma-Aldrich), and injected into the vitreous humor in a total volume of 1 μL with a 33-gauge Exmire microsyringe (Ito Corporation). […]

[1] = test system: Dicer1f/f mouse RPE cells; experiment: Cell viability of Dicer1f/f mouse RPE cells treated with Ad-Cre; type: cell-based
Protocol: Adenoviral infection. Cells were plated at density of 15×10^3/cm^2 and after 16 h, at approximately 50% confluence, were infected with AdCre or AdNull (Vector Laboratories) with a multiplicity of infection of 1,000.

IRAK1/4 = experiment: Western blot of phosphorylated IRAK1/4 in human RPE cells; type: cell-based; conditions: normalized to Vinculin
Protocol: Protein abundance and activity. Protein abundance was assessed by Western blot analysis using primary antibodies recognizing Caspase-1 (1:500; Invitrogen), pIRAK1 (1:500; Thermo Scientific), pIRAK4 (1:500, Abbomax, Inc), PYCARD (1:200, Santa Cruz Biotechnology), NLRP3 (1:500, Enzo Life Sciences) and Vinculin (1:1,000; Sigma-Aldrich). Caspase-1 activity was visualized using Caspalux1 E1D2 (OncoImmunin) reagent according to the manufacturer's instructions.
Western blotting. Tissues or cells were homogenized in lysis buffer (10 mM Tris base, pH 7.4, 150 mM NaCl, 1 mM EDTA, 1 mM EGTA, 1% Triton X-100, 0.5% NP-40, protease and phosphatase inhibitor cocktail (Roche)). Protein concentrations were determined using a Bradford assay kit (Bio-Rad) with bovine serum albumin as a standard. Proteins (40-100 μg) were run on NuPAGE Bis-Tris gels (Invitrogen) and transferred to Immun-Blot PVDF membranes (Bio-Rad). Cells were scraped in hot Laemmli buffer (62.5 mM Tris base, pH 6.8, 2% SDS, 5% 2-Mercaptoethanol, 10% Glycerol, 0.01% Bromophenol Blue). Samples were boiled and run on 4-20% NuPAGE Tris-Glycine gels (Invitrogen). […] Protein loading was assessed by immunoblotting using an anti-Vinculin antibody (1:1,000; Sigma-Aldrich). […]

## MyD88 inhibitory peptide: peptide inhibitor of MyD88 homodimerization IMG-2005 (IMGENEX)
wild-type mice
  Alu RNA-induced RPE degeneration: prevented
[1]
  cell death in Dicer1f/f mouse RPE cells treated with adenoviral vector coding for Cre recombinase: prevented cell death
IRAK1/4
  Alu RNA-induced phosphorylation of IRAK1/4: reduced
